Reference: article PMC8613358, “Next generation Glucose-1-phosphate thymidylyltransferase (RmlA) inhibitors: An extended SAR study to direct future design” (Bioorganic & Medicinal Chemistry, 2021)
In brackets after ≈: the same amount, converted by molar mass. Entries after “also recorded” stand apart in the source; their conditions may differ. Structures can show the parent of a compound that is named as a salt.

Legend:
P. aeruginosa RmlA = molecular target: T1, P. aeruginosa RmlA (Pseudomonas aeruginosa, UniProt Q9HU22); test: In vitro RmlA inhibition assay (BIOMOL Green phosphate detection); assay type: biochemical; settings: for inhibition at 10 µM: 10 μM inhibitor, 30 min, room temperature; for inhibition at 10 µM / IC50: 15 nM recombinant RmlA, 5 μM dTTP, 5 μM G-1-P; for LE (Ligand efficiency): LE = pIC50/number of heavy atoms; for LLE (Lipophilic ligand efficiency): LLE = pIC50 – cLogP; for IC50: ± SD, n = 3; for increase in potency compared to 1b: ratio of IC50 values vs 1b
T1 construct: made in house
Method: Each assay was performed in a 101 μL reaction volume containing 50 mM Tris (pH 7.4), 5 mM MgCl2, 1 mM dithiothreitol, 0.1 mM EDTA (pH 8.0), 0.1 mM EGTA (pH 8.0), 0.05% NP-40, 15 nM recombinant RmlA, 0.8 μg/ml pyrophosphatase, 5 μM dTTP and 5 μM G-1-P. The inhibitor was added to the plate (20 μL) followed by RmlA (30 μL). The reaction was initiated with the addition of dTTP (25 μL), G-1-P (25 μL) and pyrophosphatase (1 μL) as a mixture in one charge (51 μL total) and the assay was allowed to run for 30 min at room temperature. The reaction was quenched by addition of BIOMOL™ Green reagent (100 μL) and was allowed to develop before the absorbance of each well was measured at 620 nm.

M.tuberculosis (H37Rv) = system: M.tuberculosis (H37Rv); parameters: method as in PMID 23138692; settings: cited from earlier work

T1 sequence (Q9HU22 1-293): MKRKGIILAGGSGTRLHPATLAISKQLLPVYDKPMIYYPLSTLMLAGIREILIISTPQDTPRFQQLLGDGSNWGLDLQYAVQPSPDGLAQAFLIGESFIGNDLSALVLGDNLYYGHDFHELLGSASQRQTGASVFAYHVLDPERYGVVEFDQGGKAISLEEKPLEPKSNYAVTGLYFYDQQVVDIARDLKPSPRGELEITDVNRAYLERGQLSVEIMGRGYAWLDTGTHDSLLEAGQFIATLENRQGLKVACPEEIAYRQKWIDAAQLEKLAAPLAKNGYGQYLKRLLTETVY

| SMILES | melting point [°C] | inhibition at 10 µM (P. aeruginosa RmlA) [%] | LE (Ligand efficiency) (P. aeruginosa RmlA) | LLE (Lipophilic ligand efficiency) (P. aeruginosa RmlA) | IC50 (P. aeruginosa RmlA) [µM] | activity against P. aeruginosa RmlA (in words) (P. aeruginosa RmlA) | increase in potency compared to 1b (P. aeruginosa RmlA) [fold] | MIC100 (M. tuberculosis) (M.tuberculosis (H37Rv)) [µg/mL] |
| --- | --- | --- | --- | --- | --- | --- | --- | --- |
| CNCCCNc1c(N(C)S(=O)(=O)c2ccccc2)c(=O)[nH]c(=O)n1Cc1ccc(Br)cc1 (as salt: TFA) [Compound 1b, N-(1-(4-bromobenzyl)-6-((3-(methylamino)propyl)amino)-2,4-dioxo-1,2,3,4-tetrahydropyrimidin-5-yl)-N-methylbenzenesulfonamide] | 294 to 297 | – | – | – | – | – | – | – |
| CNCCNc1c(N(C)S(=O)(=O)c2ccccc2)c(=O)[nH]c(=O)n1Cc1ccc(Br)cc1 (as salt: TFA) [Compound 1c, N-(1-(4-bromobenzyl)-6-((2-(methylamino)ethyl)amino)-2,4-dioxo-1,2,3,4-tetrahydropyrimidin-5-yl)-N-methylbenzenesulfonamide] | 283 to 286 | – | – | – | – | – | – | – |
| CN(c1c(N)n(Cc2ccc(Br)cc2)c(=O)[nH]c1=O)S(=O)(=O)c1ccccc1 [Compound 1a] | – | 100 | 0.37 | 5.20 | 0.034 ± 0.002 | – | – | – |
| CNCCCNc1c(N(C)S(=O)(=O)c2ccccc2)c(=O)[nH]c(=O)n1Cc1ccc(Br)cc1 [Compound 1b, N-(1-(4-bromobenzyl)-6-((3-(methylamino)propyl)amino)-2,4-dioxo-1,2,3,4-tetrahydropyrimidin-5-yl)-N-methylbenzenesulfonamide] | – | 100 | 0.30 | 4.30 | 0.86 ± 0.096 | – | – | – |
| CNCCNc1c(N(C)S(=O)(=O)c2ccccc2)c(=O)[nH]c(=O)n1Cc1ccc(Br)cc1 [Compound 1c, N-(1-(4-bromobenzyl)-6-((2-(methylamino)ethyl)amino)-2,4-dioxo-1,2,3,4-tetrahydropyrimidin-5-yl)-N-methylbenzenesulfonamide] | – | 0 | – | – | – | complete loss of activity; also recorded: lost the inhibitory activity | – | – |
| CN(c1c(NCCCCN)n(Cc2ccc(Br)cc2)c(=O)[nH]c1=O)S(=O)(=O)c1ccccc1 [Compound 1d, N-(6-((4-aminobutyl)amino)-1-(4-bromobenzyl)-2,4-dioxo-1,2,3,4-tetrahydropyrimidin-5-yl)-N-methylbenzenesulfonamide] | 311 to 313 | 100 | 0.28 | 4.40 | 0.303 ± 0.026 | – | ~2.5 | – |
| CN(c1c(NCCCCCN)n(Cc2ccc(Br)cc2)c(=O)[nH]c1=O)S(=O)(=O)c1ccccc1 [Compound 1e, N-(6-((5-aminopentyl)amino)-1-(4-bromobenzyl)-2,4-dioxo-1,2,3,4-tetrahydropyrimidin-5-yl)-N-methylbenzenesulfonamide] | 317 to 319 | 100 | 0.27 | 3.90 | 0.316 ± 0.023 | – | ~2.5 | – |
| CN(c1c(NCCCn2cc(CN)nn2)n(Cc2ccccc2)c(=O)[nH]c1=O)S(=O)(=O)c1ccccc1 [Compound 1f] | 295 to 297 | 100 | 0.21 | 4.50 | 2.47 ± 0.02 | – | – | – |
| CN(c1c(N)n(Cc2ccccc2)c(=O)[nH]c1=O)S(=O)(=O)c1ccccc1 [Compound 8a] | – | – | – | – | – | – | – | 100 (≈ 259 µM) |
